Measured values from US20240287022A1 (Merck Sharp & Dohme LLC, priority 2021, published 2024).

Biological target: recombinant IL4I1 (Homo sapiens (Human), UniProt Q96RQ9)
Assay: IL4I1 Enzymatic Assay (Amplex Red/HRP coupled H2O2 detection)
Assay type: biochemical
Settings: 1 nM IL4I1, 1 mM each Phe/Tyr/Trp, four-hour pre-incubation, 120 minutes reaction, top compound concentration of 10000 nM
Protocol: Interleukin 4 inducible protein 1 (IL4I1) is an L-amino oxidase that catalyzes the oxidation of aromatic residues (Phe, Trp and Tyr): L-amino acid+H2O+O2→2-oxo acid+NH3+H2O2. Equal molar of H2O2 and the corresponding alpha-ketoacid are produced when IL4I1 and substrate are added. In this assay, the hydrogen peroxide generated by IL4I1 are then detected through a coupled reaction with Amplex Red (10-acetyl-3,7-dihydroxyphenoxazine) and […] (HRP) to produce Resorufin product that could be detected in the form of fluorescence signals. The assessment of the inhibitory effect of small molecules (EC50) on IL4I1 is measured by the effectiveness of the compounds to inhibit the production of H2O2.
Using this assay, the potency (EC50) of each compound was determined from a ten-point (1:3 serial dilution; top compound concentration of 10000 nM) titration curve using the following outlined procedure. To each well of a black flat-bottom Greiner (Cat #781076) 384 well-plate, 25 nL of compound (0.1% DMSO in final assay volume of 25 μL) was dispensed, followed by the addition of 12.5 μL of 1× assay buffer (50 mM Hepes 7.0 and 0.005% Tween20 (Sigma, Cat #P8341; low peroxide grade)) containing 2 nM of recombinant IL4I1 (R&D Systems, Cat #5684-AO-020). Plates were placed in an ambient temperature humidified chamber for a four-hour pre-incubation with compound. Subsequently, each reaction was initiated by the addition of 12.5 μL 1× assay buffer containing 2 mM of each aromatic amino acids (Phe/Tyr/Trp), 0.1 mM Amplex Red and 2 U/mL of HRP. The final reaction in each well of 25 μL consists of 1 nM of IL4I1, 1 mM of each residues (Phe, Tyr and Trp), 0.05 mM Amplex Red and 1 U/mL of HRP. It should be noted that the concentrations of Amplex Red and HRP used here are in excess such that the conversion of H2O2 to Resorufin product occurs instantaneously and non-rate limiting. Reactions were allowed to proceed for 120 minutes followed by fluorescence readout on a Spectramax with the following set parameters: 544 nm excitation/590 nm emission, 570 nm cutoff (EnVision is an alternative reader). Dose-response curves were generated by plotting percent effect (% product conversion; Y-axis) vs. Log10 compound concentrations (X-axis). EC50 values were calculated using a non-linear regression, four-parameters sigmoidal dose-response model.

recombinant IL4I1, sequence (Q96RQ9 22-567): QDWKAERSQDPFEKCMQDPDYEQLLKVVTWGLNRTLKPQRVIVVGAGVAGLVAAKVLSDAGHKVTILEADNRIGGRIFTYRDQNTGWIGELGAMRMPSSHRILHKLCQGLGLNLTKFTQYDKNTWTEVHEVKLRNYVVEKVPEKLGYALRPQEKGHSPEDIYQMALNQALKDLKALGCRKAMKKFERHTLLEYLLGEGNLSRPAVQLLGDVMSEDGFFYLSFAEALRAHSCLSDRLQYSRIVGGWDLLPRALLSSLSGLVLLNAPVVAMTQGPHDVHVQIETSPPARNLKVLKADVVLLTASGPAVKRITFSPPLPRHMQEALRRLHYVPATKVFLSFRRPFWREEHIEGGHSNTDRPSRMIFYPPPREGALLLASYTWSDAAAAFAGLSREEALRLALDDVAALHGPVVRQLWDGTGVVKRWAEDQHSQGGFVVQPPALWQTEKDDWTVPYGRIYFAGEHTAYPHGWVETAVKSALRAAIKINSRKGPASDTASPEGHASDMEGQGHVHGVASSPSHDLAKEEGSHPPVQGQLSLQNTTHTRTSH

Work on `O=c1[nH]c2ccccc2cc1Cc1ccc2ncccc2c1` [Example 152, 3-(Quinolin-6-ylmethyl)quinolin-2(1H)-one] yielded an EC50 of 5.3 nM.
With `Cn1ncc2cc(Cc3cc4ccccc4[nH]c3=O)ccc21` [Example 153, 3-((1-methyl-1H-indazol-5-yl)methyl)quinolin-2(1H)-one] the EC50 was 1.2 nM.
`CC(=O)c1cccc(Cc2cc3ccccc3[nH]c2=O)c1` [Example 86, 3-(3-acetylbenzyl)quinolin-2(1H)-one] was tested, and the EC50 was 0.9 nM.
In the case of `O=c1[nH]c2ccccc2cc1Cc1nnc(Cc2ccccc2F)o1` [Example 8, 3-((5-(2-fluorobenzyl)-1,3,4-oxadiazol-2-yl)methyl)quinolin-2(1H)-one], the EC50 is reported as 12.8 nM.
For `O=c1[nH]c2ccc(Cc3cc4ccccc4[nH]c3=O)cc2o1` [Example 121, 6-((2-oxo-1,2-dihydroquinolin-3-yl)methyl)benzo[d]oxazol-2(3H)-one], the EC50 was 0.9 nM.
With `Cn1cc2c(Cc3cc4cc(F)ccc4[nH]c3=O)cccc2n1` [Example 163, 6-fluoro-3-((2-methyl-2H-indazol-4-yl)methyl)quinolin-2(1H)-one] the EC50 was 5.4 nM.
Work on `Cc1noc(C)c1Cc1nnc(Cc2cc3ccccc3[nH]c2=O)o1` [Example 24, 3-((5-((3,5-dimethylisoxazol-4-yl)methyl)-1,3,4-oxadiazol-2-yl)methyl)quinolin-2(1H)-one] yielded an EC50 of 194 nM.
Molecule `CC1CN(c2ccc(Cc3cc4cnccc4[nH]c3=O)cc2)C(=O)O1` (single isomer, unassigned) [Example 188, (R or S)-5-methyl-3-(4-((2-oxo-1,2-dihydro-1,6-naphthyridin-3-yl)methyl)phenyl)oxazolidin-2-one] has an EC50 of 12.3 nM.
`Cn1c(=O)c(Cc2ccc(C(C)(C)O)cc2)cc2ccccc21` [Example 143, 3-(4-(2-hydroxypropan-2-yl)benzyl)-1-methylquinolin-2(1H)-one] gave an EC50 of 2.6 nM.
Molecule `O=c1[nH]c2ccccc2cc1Cc1cnc(-c2ccc(F)cc2)o1` [Example 138, 3-((2-(4-fluorophenyl)oxazol-5-yl)methyl)quinolin-2(1H)-one] has an EC50 of 36.9 nM.
In the case of `O=c1[nH]c2ccccc2cc1Cc1nnc(CC2CC2)o1` [Example 27, 3-((5-(cyclopropylmethyl)-1,3,4-oxadiazol-2-yl)methyl)quinolin-2(1H)-one], the EC50 is reported as 70.3 nM.
Molecule `CC(=O)NCc1ncc(Cc2cc3ccccc3[nH]c2=O)cc1F` [Example 82] has an EC50 of 10 nM.
For `O=C1COc2c(Cl)cc(Cc3cc4ccccc4[nH]c3=O)cc2N1` [Example 170, 8-Chloro-6-((2-oxo-1,2-dihydroquinolin-3-yl)methyl)-2H-benzo[b][1,4]oxazin-3(4H)-one], the EC50 was 1 nM.
Work on `O=c1[nH]c2ccccc2cc1Cc1ccc(-c2cnccn2)c(F)c1` [Example 127, 3-(3-fluoro-4-(pyrazin-2-yl)benzyl)quinolin-2(1H)-one] yielded an EC50 of 2.1 nM.
`O=c1[nH]c2ccncc2cc1Cc1ccc(C2(O)CCC2)cc1` [Example 113, 3-(4-(1-hydroxycyclobutyl)benzyl)-1,6-naphthyridin-2(1H)-one] gave an EC50 of 7 nM.
In the case of `CC1(N)CN(c2ccc(Cc3cc4ccccc4[nH]c3=O)cc2)C1` [compound 60, 3-(4-(3-amino-3-methylazetidin-1-yl)benzyl)quinolin-2(1H)-one], the EC50 is reported as 19.9 nM.
Work on `N#CC1(c2ccc(Cc3cc4ccccc4[nH]c3=O)cn2)COC1` [Example 99, 3-(5-((2-oxo-1,2-dihydroquinolin-3-yl)methyl)pyridin-2-yl)oxetane-3-carbonitrile] yielded an EC50 of 5.9 nM.
For `O=c1[nH]c2ccccc2cc1Cc1nnc(-c2cn3ccsc3n2)o1` [Example 13, 3-((5-(imidazo[2,1-b]thiazol-6-yl)-1,3,4-oxadiazol-2-yl)methyl)quinolin-2(1H)-one], the EC50 was 5.7 nM.
For `O=c1[nH]c2ccccc2cc1Cc1cc(F)c2c(c1)CNC2` [Example 69, 3-((7-fluoroisoindolin-5-yl)methyl)quinolin-2(1H)-one], the EC50 was 10.6 nM.
With `C[C@@H]1Oc2ccc(Cc3cc4ccccc4[nH]c3=O)cc2NC1=O` (stereo in doubt) [Example 142B, 2-methyl-6-((2-oxo-1,2-dihydroquinolin-3-yl)methyl)-2H-benzo[b][1,4]oxazin-3(4H)-one] the EC50 was 81.4 nM.
`O=C1COc2c(Cc3cc4ccccc4[nH]c3=O)cccc2N1` [Example 122, 8-((2-oxo-1,2-dihydroquinolin-3-yl)methyl)-2H-benzo[b][1,4]oxazin-3(4H)-one] showed an EC50 of 6.6 nM.
Molecule `O=C1COc2ncc(Cc3cc4ccccc4[nH]c3=O)cc2N1` [Example 89, 7-((2-oxo-1,2-dihydroquinolin-3-yl)methyl)-1H-pyrido[2,3-b][1,4]oxazin-2(3H)-one] has an EC50 of 4.5 nM.
`O=c1[nH]c2ccccc2cc1Cc1nnc(-c2cccc(C(F)(F)F)c2)o1` [Example 10, 3-((5-(3-(trifluoromethyl)phenyl)-1,3,4-oxadiazol-2-yl)methyl)quinolin-2(1H)-one] showed an EC50 of 7.6 nM.
`O=c1[nH]c2ccccc2cc1Cc1ccc([C@@H]2CCNC2)cc1` [65A] showed an EC50 of 7.1 nM.
`CCn1cc(Cc2cc3ccccc3[nH]c2=O)cn1` [Example 112, 3-((1-ethyl-1H-pyrazol-4-yl)methyl)quinolin-2(1H)-one] gave an EC50 of 60.5 nM.
Work on `COC(=O)NCc1nnc(Cc2cc3ccccc3[nH]c2=O)o1` [Example 43, methyl ((5-((2-oxo-1,2-dihydroquinolin-3-yl)methyl)-1,3,4-oxadiazol-2-yl)methyl)carbamate] yielded an EC50 of 588 nM.
Molecule `C[C@@](O)(c1ccc(Cc2cc3ccccc3[nH]c2=O)cc1)C(F)F` (stereo in doubt) [Example 90A, 3-(4-(1,1-difluoro-2-hydroxypropan-2-yl)benzyl)quinolin-2(1H)-one] has an EC50 of 9.6 nM.
Molecule `O=c1[nH]c2c(CO)cccc2cc1Cc1cccc(OC(F)(F)F)c1` [Example 177, 8-(hydroxymethyl)-3-(3-(trifluoromethoxy)benzyl)quinolin-2(1H)-one] has an EC50 of 1910 nM.
`CC(=O)NCc1ccc(Cc2cc3ccccc3[nH]c2=O)cn1` [Example 84, N-((5-((2-oxo-1,2-dihydroquinolin-3-yl)methyl)pyridin-2-yl)methyl)acetamide] was tested, and the EC50 was 13.8 nM.
In the case of `CC1(c2ccc(Cc3cc4ccccc4[nH]c3=O)cc2)CCC(=O)N1` (single isomer, unassigned) [Example 183B, (R or S)-3-(4-(2-methyl-5-oxopyrrolidin-2-yl)benzyl)quinolin-2(1H)-one], the EC50 is reported as 11.1 nM.
`O=c1[nH]c2ccccc2cc1Cc1cnc(N2CCCCC2)s1` [Example 137, 3-((2-(piperidin-1-yl)thiazol-5-yl)methyl)quinolin-2(1H)-one] gave an EC50 of 4.5 nM.
Molecule `Cc1nn(C)cc1-c1nnc(Cc2cc3ccccc3[nH]c2=O)o1` [Example 36, 3-((5-(1,3-dimethyl-1H-pyrazol-4-yl)-1,3,4-oxadiazol-2-yl)methyl)quinolin-2(1H)-one] has an EC50 of 30.7 nM.
`Cc1c(Cc2cc3ccccc3[nH]c2=O)cnn1C` [Example 109, 3-((1,5-dimethyl-1H-pyrazol-4-yl)methyl)quinolin-2(1H)-one] gave an EC50 of 39.9 nM.
Work on `O=c1[nH]c2ccccc2cc1Cc1nnc(-c2ncn3ccccc23)o1` [Example 16, 3-((5-(imidazo[1,5-a]pyridin-1-yl)-1,3,4-oxadiazol-2-yl)methyl)quinolin-2(1H)-one] yielded an EC50 of 10.2 nM.
`CC(=O)NCc1ccc(Cc2cc3ccccc3[nH]c2=O)c(F)c1` [Example 167, N-(3-fluoro-4-((2-oxo-1,2-dihydroquinolin-3-yl)methyl)benzyl)acetamide] gave an EC50 of 4.9 nM.
For `Cn1c(=O)c(Cc2cccc(OC(F)(F)F)c2)cc2ccccc21` [Example 144, 1-methyl-3-(3-(trifluoromethoxy)benzyl)quinolin-2(1H)-one], the EC50 was 7.2 nM.
Work on `Cc1nnc(Cc2cc3ccccc3[nH]c2=O)o1` [Example 20, 3-((5-methyl-1,3,4-oxadiazol-2-yl)methyl)quinolin-2(1H)-one] yielded an EC50 of 624 nM.
Molecule `COc1cc(CNS(C)(=O)=O)ccc1Cc1cc2ccccc2[nH]c1=O` [Example 74, N-(3-methoxy-4-((2-oxo-1,2-dihydroquinolin-3-yl)methyl)benzyl)methanesulfonamide] has an EC50 of 6.9 nM.
`O=c1[nH]c2ccccc2cc1Cc1ccc(CC2CNC2)cc1` [compound 64, 3-(4-(azetidin-3-ylmethyl)benzyl)quinolin-2(1H)-one] gave an EC50 of 10.8 nM.
Molecule `O=C1COc2ccc(Cc3cc4ccccc4[nH]c3=O)cc2N1` [Example 155, 6-((2-oxo-1,2-dihydroquinolin-3-yl)methyl)-2H-benzo[b][1,4]oxazin-3(4H)-one] has an EC50 of 2 nM.
For `CC(C)(C)n1cc(Cc2cc3ccccc3[nH]c2=O)cn1` [Example 110, 3-((1-(tert-butyl)-1H-pyrazol-4-yl)methyl)quinolin-2(1H)-one], the EC50 was 11.5 nM.
